In patent publication US20170304388A1, “NEW INDICATION OF CARDIOVASCULAR DRUGS FOR PREPARATION OF CANCER INHIBITION PHARMACEUTICAL COMPOSITION” (LAUNX BIOMEDICAL CO., LTD., priority 2014, published 2017):
Structures can show the parent of a compound that is named as a salt.

Assays:
Format in all cases: cell-based
[1] = system: A375 (Amelanotic Melanoma); assay: Cell viability analysis (WST-1), A375; conditions: Homo sapiens, A-375, 72 h, Table 4, repeated experiments, drug 10 μM, WST-1, read-out: survival rate (viability) of cancer cells, A375
[2] = system: HCT116 (Colorectal Carcinoma); assay: Cell viability analysis (WST-1), HCT116; conditions: Homo sapiens, HCT-116, 72 h, Table 4, repeated experiments, drug 10 μM, WST-1, read-out: survival rate (viability) of cancer cells, HCT116
[3] = system: HepG2 (Hepatocellular Carcinoma); assay: Cell viability analysis (WST-1), HepG2; conditions: Homo sapiens, HepG2, 72 h, Table 4, repeated experiments, drug 10 μM, WST-1, read-out: survival rate (viability) of cancer cells, HepG2
[4] = system: HeLa (Cervix Adenocarcinoma); assay: Cell viability analysis (WST-1), HeLa; conditions: Homo sapiens, HeLa, 72 h, Table 4, repeated experiments, drug 10 μM, WST-1, read-out: survival rate (viability) of cancer cells, HeLa
[5] = system: AGS (Gastric Adenocarcinoma); assay: Cell viability analysis (WST-1), AGS; conditions: 72 h, Table 4, repeated experiments, drug 10 μM, WST-1, read-out: survival rate (viability) of cancer cells, AGS
[6] = system: MKN-45 (Gastric Adenocarcinoma); assay: Cell viability analysis (WST-1), MKN-45; conditions: Homo sapiens, MKN-45, 72 h, Table 4, repeated experiments, drug 10 μM, WST-1, read-out: survival rate (viability) of cancer cells, MKN-45
[7] = system: TSGH-8301 (Urinary Bladder Carcinoma); assay: Cell viability analysis (WST-1), TSGH-8301; conditions: 72 h, Table 4, repeated experiments, drug 10 μM, WST-1, read-out: survival rate (viability) of cancer cells, TSGH-8301
[8] = system: A549 (Lung Adenocarcinoma); assay: Cell viability analysis (WST-1), A549; conditions: Homo sapiens, A549, 72 h, Table 4, repeated experiments, drug 10 μM, WST-1, read-out: survival rate (viability) of cancer cells, A549
[9] = system: MCF7 (Mammary Gland, Adenocarcinoma); assay: Cell viability analysis (WST-1), MCF7; conditions: Homo sapiens, MCF7, 72 h, Table 4, repeated experiments, drug 10 μM, WST-1, read-out: survival rate (viability) of cancer cells, MCF-7
[10] = system: LoVo (Colorectal Adenocarcinoma); assay: Cell viability analysis (WST-1), LoVo; conditions: Homo sapiens, LoVo, 72 h, Table 4, repeated experiments, drug 10 μM, WST-1, read-out: survival rate (viability) of cancer cells, LoVo
T24 = assay: Cell viability analysis (WST-1), T24; conditions: Homo sapiens, T-24, 72 h, Table 4, repeated experiments, drug 10 μM, read-out: survival rate (viability) of cancer cells, T24
Protocol: (§1) Subculture the different types of cancer cells. The cancer cells includes lung cancer, gastric cancer, hepatic cancer, colon cancer, skin cancer, cervical cancer, prostate cancer, bladder cancer, breast cancer, leukemia, pancreatic cancer, ovarian cancer, tongue cancer, osteosarcoma, and renal cancer. The cell numbers were counted and reseed as 2×10^6 in cell culture plate/flask. Then, the culture medium for culturing the cell lines was added to a volume of 10 ml, and the cells were cultured for 2-3 days. Then, the cells were suspended for loading into 96-well plates. The cell number was 3000 cells and the volume of the culture medium was 100 ul each well.
(§2) Removing the original culture medium from 96-well plate. Then add 100 μl of commercially drug at a concentration of 10 μM per well. After 72 hours, add the diluted WST-1 reagent to the well with 100 μl/well, and the diluted WST-1 reagent was acquired from the dilution of 9:1 medium and WST-1 stock reagent. Finally, the total volume of each well are 200 μl/well. Culture the 96-well plate at 37° C. for 30 to 90 minutes. Detecting and calculating the survival rate of each cancer cells with an ELISA reader at OD450 nm. The lower viability of cancer cells represents better inhibition effect via the drugs. Otherwise, the higher viability of cancer cells represents worse inhibition effect via the drugs.
(§3) According to the above mentioned cardiovascular drugs for cancer growth inhibition in Table 3, the inventors took the repeat experiments for the cardiovascular drugs to check the growth inhibitory effects of cancer cells by the cardiovascular drugs. […] 4.

Hep3B = assay: Cell viability analysis (WST-1), Hep3B; conditions: Homo sapiens, Hep3B, 72 h, Table 4, repeated experiments, drug 10 μM, read-out: survival rate (viability) of cancer cells, Hep3B
Protocol: as §1, §2, §3

C-33A = assay: Cell viability analysis (WST-1), C-33A; conditions: Homo sapiens, C-33-A, 72 h, Table 4, repeated experiments, drug 10 μM, read-out: survival rate (viability) of cancer cells, C-33A
Protocol: as §1, §2, §3

MDA-MB231 = assay: Cell viability analysis (WST-1), MDA-MB231; conditions: Homo sapiens, MDA-MB-231, 72 h, Table 4, repeated experiments, drug 10 μM, read-out: survival rate (viability) of cancer cells, MDA-MB231
NIH-OVCAR-3 = assay: Cell viability analysis (WST-1), NIH-OVCAR-3; conditions: Homo sapiens, OVCAR-3, 72 h, Table 4, repeated experiments, drug 10 μM, read-out: survival rate (viability) of cancer cells, NIH-OVCAR-3
Protocol: as §1, §2, §3

TOV-21G = assay: Cell viability analysis (WST-1), TOV-21G; conditions: Homo sapiens, TOV21G, 72 h, Table 4, repeated experiments, drug 10 μM, read-out: survival rate (viability) of cancer cells, TOV-21G
Protocol: as §1, §2, §3

AsPC-1 = assay: Cell viability analysis (WST-1), AsPC-1; conditions: Homo sapiens, ASPC1, 72 h, Table 4, repeated experiments, drug 10 μM, read-out: survival rate (viability) of cancer cells, AsPC-1
Protocol: as §1, §2, §3

BxPC-3 = assay: Cell viability analysis (WST-1), BxPC-3; conditions: Homo sapiens, BXPC-3, 72 h, Table 4, repeated experiments, drug 10 μM, read-out: survival rate (viability) of cancer cells, BxPC-3
Protocol: as §1, §2, §3

SAS = assay: Cell viability analysis (WST-1), SAS; conditions: 72 h, Table 4, repeated experiments, drug 10 μM, read-out: survival rate (viability) of cancer cells, SAS
Protocol: as §1, §2, §3

U2OS = assay: Cell viability analysis (WST-1), U2OS; conditions: Homo sapiens, U2OS, 72 h, Table 4, repeated experiments, drug 10 μM, read-out: survival rate (viability) of cancer cells, U2OS
Protocol: as §1, §2, §3

BCC = assay: Cell viability analysis (WST-1), BCC; conditions: BCC, 72 h, Table 4, repeated experiments, drug 10 μM, read-out: survival rate (viability) of cancer cells, BCC
786-O = assay: Cell viability analysis (WST-1), 786-O; conditions: Homo sapiens, 786-0, 72 h, Table 4, repeated experiments, drug 10 μM, read-out: survival rate (viability) of cancer cells, 786-O
Protocol: as §1, §2, §3

cancer cell lines = assay: Growth inhibitory effects on the panel of cancer cell lines; conditions: drug 10 μM, 72 hours, WST-1
Source text: For cell viability analysis, the cardiovascular drugs include peripheral vasodilator reaming enhancer, angiotensin converting agent inhibitor, hypotension and shock therapeutic agent, diuretic, antiarrhythmic agent, antiarralciton drug, antihypertensive agent, anticoagulant thrombolytic agent, cardiac tonic, intravenous (hemorrhoids) therapeutic agent, are used to test the inhibition effect of cancer cell.

[11] = system: H1650 (Lung Adenocarcinoma); assay: Cell viability analysis (WST-1), H1650; conditions: Homo sapiens, NCI-H1650, 72 h, Table 4, repeated experiments, drug 10 μM, WST-1, read-out: survival rate (viability) of cancer cells, H1650
[12] = system: PC3 (Prostate Adenocarcinoma); assay: Cell viability analysis (WST-1), PC3; conditions: 72 h, Table 4, repeated experiments, drug 10 μM, WST-1, read-out: survival rate (viability) of cancer cells, PC-3

Compound | viability at 10 µM [1] [%] | viability at 10 µM [2] [%] | viability at 10 µM [3] [%] | viability at 10 µM [4] [%] | viability at 10 µM [5] [%] | viability at 10 µM [6] [%] | viability at 10 µM [7] [%] | viability at 10 µM [8] [%] | viability at 10 µM [9] [%] | viability at 10 µM [10] [%] | viability at 10 µM (T24) [%] | viability at 10 µM (Hep3B) [%] | viability at 10 µM (C-33A) [%] | viability at 10 µM (MDA-MB231) [%] | viability at 10 µM (NIH-OVCAR-3) [%] | viability at 10 µM (TOV-21G) [%] | viability at 10 µM (AsPC-1) [%] | viability at 10 µM (BxPC-3) [%] | viability at 10 µM (SAS) [%] | viability at 10 µM (U2OS) [%] | further results
COc1cc2nc(N3CCN(C(=O)c4ccco4)CC3)nc(N)c2cc1OC [Prazosin HCl] | 77.9 | 96.4 | 87.2 | 90.9 | 86.8 | 70.1 | 99.8 | 72.2 | 87.6 | 95.7 | 88.5 | 116 | 97.2 | 85.1 | 88.9 | 91.9 | 80.4 | 54 | 114 | 98 | viability at 10 µM (BCC): 73.5%; viability at 10 µM (786-O): 79.5%; inhibition effect on different cancer cell lines (in words) (cancer cell lines): significant inhibition effect
C[C@@H]1O[C@@H](O[C@H]2C[C@@H](O)[C@]3(CO)[C@H]4[C@H](O)C[C@]5(C)[C@@H](C6=CC(=O)OC6)CC[C@]5(O)[C@@H]4CC[C@]3(O)C2)[C@H](O)[C@H](O)[C@H]1O [Ouabain] | 18.4 | 15.9 | 38.1 | 23.1 | 16.6 | 53 | 43.6 | 15.1 | 29.1 | 39.7 | 17.6 | 33.4 | 35.5 | 44.5 | 42.3 | 15.9 | 20.1 | 27 | 20.2 | 22.8 | viability at 10 µM [11]: 38.7%; viability at 10 µM [12]: 25.8%; viability at 10 µM (BCC): 25.6%; viability at 10 µM (786-O): 14.5%
